Assay results as given in patent US4690920A, “Derivative of cephalosporanic acid and pharmaceutical composition comprising the same” (Kureha Kagaku Kogyo Kabushiki Kaisha, priority 1982, dated 1987).

How the values were obtained:
[1] = system: A species of Lactobacillus; assay: Effect on the intestinal bacterial colonies: number of a species of Lactobacillus in feces; assay type: in vivo, Lactobacillus (feces of female ICR mice); details: oral, 500 mg/kg/day for 2 days; feces one day after administration; before administration 9.0
Experimental: (§1) After collecting the feces of a group of mice, each of the compounds represented by the formula (I) was orally administered to each of the group for 2 continued days at a daily dose rate of 500 mg per kg body weight, and the feces were again collected one day after the administration. Each portion of the thus collected, two kinds of the feces was cultured at 25° C. or 37° C. in a variety of culture media for one to five days to see the state of growth of the following bacteria which are present habitually in the intestine of the mouse: Escherichia coli, Pseudomonas aeruginosa, a streptococcus bacterial species, a lactobacillis bacteria, Lactobacillus bifidus and a bacterioides bacteria.
(§2) Each of the compounds, respectively produced in Examples 1 to 6 was orally administered for two continued days at a daily dosage of 500 mg/kg body weight to each of five female ICR mice of a group after 6 weeks of birth.
(§3) Each of the two fecal specimens respectively collected before and after one day of the administration was diluted with 100 times by weight of an anaerobic diluent (a phosphoric buffer solution) and was ground in a mortar, and 0.1 ml of the ground material was smeared on each of the following culture media for the following bacteria and the thus inoculated culture media were incubated under the following conditions. Thereafter, the number of the following bacteria was determined on each culture medium.
a species of LBS agar 37° C., for 5 days, […]

[2] = system: Escherichia coli IFO 12734; assay: Effectiveness in treating experimental infectious disease, Escherichia coli; assay type: in vivo, mice (ddY-SPF) infected with Escherichia coli; details: of 20 mice; 1.4×10^8 cells i.p.; 500 mg/kg orally two times, just after and after 4 hours; all untreated died on second day
Experimental: (§4) Each of 20 mice of a group was infected by intraperitoneal inoculation of Escherichia coli IFO 12734 or Staphylococcus aureus IAM 1011, and just after or after 4 hours of the inoculation, each of the compounds represented by the formula (I) was orally administered to the inoculated mouse at a dose rate of 500 mg/kg body weight.
(§5) Cells in number of 1.4×10^8 of Escherichia coli IFO 12734 were intraperitoneally inoculated to each of 40 ddY-SPF mice, and each of 20 mice of the 40 mice was administered two times just after and after 4 hours of the inoculation with each 500 mg of the compound produced in Example 4 per kg of body weight orally, and the other 20 mice were kept untreated.

[3] = system: A species of Bacterioides; assay: Effect on the intestinal bacterial colonies: number of a species of Bacterioides in feces; assay type: in vivo, Bacteroides (feces of female ICR mice); details: oral, 500 mg/kg/day for 2 days; feces one day after administration; before administration 8.1
Experimental: as §1, §2, §3
a species of NBGT agar 37° C., for 5 days,7 -Bacteroides anaer

Pseudomonas aeruginosa = assay: Effect on the intestinal bacterial colonies: number of Pseudomonas aeruginosa in feces; assay type: in vivo, Pseudomonas aeruginosa (feces of female ICR mice); details: oral, 500 mg/kg/day for 2 days; feces one day after administration; before administration <3.0
Experimental: as §1, §2, §3
NAC agar 37° C., for 1 day, […]

[4] = system: Escherichia coli IFO 12734; assay: Anti-bacterial activity, agar plate dilution method (MIC), Escherichia coli; assay type: cell-based; details: Mueller-Hinton agar, 18 to 24 hours, 37° C.
Experimental: (§6) 3-1: The minimum growth-inhibiting concentration (MIC) of each of the compounds represented by the formula (I) was measured according to the standard procedures of Japan Society of Chemotherapy against each of the following bacterial species:
Escherichia coli, IFO 12734 and
(§7) Anti-bacterial activity of each of the compounds produced in Examples 1 to 6 was measured according to the standard procedures of Japan Society of Chemotherapy in agar plate dilution method as follows:
(§8) As a test bacterial species, Escherichia coli IFO 12734 and Staphylococcus aureus IAM 1011, and each strain was inoculated into Mueller-Hinton's culture medium for 18 to 48 hours at 37° C., and while using the thus cultured bacteria, each of the test bacterial liquid containing 10^6 cells in one ml was prepared.
(§9) Separately, after preparing each series of diluted aqueous solutions of each of the compounds produced in Examples 1 to 6, respectively, each of them was mixed in amount of 1/9 time by weight with the Mueller-Hinton's culture medium and each flat agar culture plate was prepared by using the thus formed mixture.

[5] = system: Staphylococcus aureus IAM 1011; assay: Effectiveness in treating experimental infectious disease, Staphylococcus aureus; assay type: in vivo, mice (ddY-SPF) infected with Staphylococcus aureus; details: of 20 mice; 2.3×10^8 cells i.p.; 500 mg/kg orally two times; all untreated died on second day
Experimental: as §4, §5
Quite the same experiments as in (10-1) except for intraperitoneously inoculating Staphylococcus aureus IAM 1011 in number of 2.3×10^8instead of 1.4×10^8 cells of E. coli was carried out by administering two times with each 500 mg of the compound produced in Example 4. As a result, all the 20 mice inoculated and not administered died on the second day of inoculation, however, more than 70% of the inoculated and administered 20 mice were alive even on the 7th day of inoculation.

Lactobacillus bifidus = assay: Effect on the intestinal bacterial colonies: number of Lactobacillus bifidus in feces; assay type: in vivo, Lactobacillus bifidus (feces of female ICR mice); details: oral, 500 mg/kg/day for 2 days; feces one day after administration; before administration 8.0
Experimental: as §1, §2, §3
BS agar 37° C., for 5 days, […]

[6] = system: Staphylococcus aureus IAM 1011; assay: Model test for verifying the activation in living body: growth-inhibition circle with/without rat liver S-9 mix; assay type: cell-based; details: 20 min at 37° C., then 18 hours at 37° C.; for Sign: diameter of growth-inhibiting circle as percentage of that due to compound of formula (II), with the addition of S-9 mix: with the addition of S-9 mix (rat liver homogenate)
Experimental: On each flat culture plate prepared by adding 10^8 cells/ml of a preliminarily cultured Staphylococcus aureus IAM 1011 into 50 times by weight of Mueller-Hinton's agar culture medium, a penicillin cup of 8 mm in diameter was placed, and into each cup 0.1 ml of each of the compounds represented by the formula (I) or 0.1 ml of a cultured product of each of the compounds represented by the formula (I) together with a rat liver homogenate (containing a metabolism-activating enzyme, referred to as S-9 mix) was introduced. The diameter of each growth-inhibition circle formed around the cup after incubating the flat culture plate with the cup for 18 hours at 37° C. was measured, and the thus obtained value was compared to the value obtained by the same procedures except for using the compound represented by the formula (II), the starting compound instead of each of the compounds represented by the formula (I).
As a metabolism-activating enzyme, a rat liver homogenate (S-9, manufactured by Oriental Yeast Co.) was used in the following composition (referred to as S-9 mix, hereinafter):
After mixing 0.1 ml of a solution of the compound to be tested with 0.9 ml of S-9 mix or 0.9 ml of 0.1M phosphoric acid buffer solution, the mixture was subjected to shaking culture for 20 min at 37° C. to prepare a test reaction solution for use in the following experiment.
Staphylococcus aureus IAM 1011 was inoculated to Mueller-Hinton's culture medium and the inoculum was cultured for 18 hours at 37° C. and after adjusting the number of the bacterial cells to 10^8 /ml of the culture medium, 50 times by weight of the Mueller-Hinton's agar culture medium were added to the cultured medium to prepare flat culture plates.
After placing a penicillin-cup of 8 mm in diameter on each of the thus prepared flat culture plates, 0.1 ml of the above-mentioned test reaction solution was introduced into the penicillin-cup, and after leaving the system for 2 hours at 4° C., the system was incubated for 18 hour at 37° C., and the diameter of the growth-inhibition circle around the cup on the culture plate was determined.
The thus obtained diameter of the growth-inhibiting circle due to each of the compounds produced respectively in Examples 1 to 6 was compared to that due to the compound repesente by the formula (II), substituted cephalosporanic acid by percentage, and the following signs were respectively given to the respective compounds as follows: […]

[7] = system: A species of Streptococcus; assay: Effect on the intestinal bacterial colonies: number of a species of Streptococcus in feces; assay type: in vivo, Streptococcus (feces of female ICR mice); details: oral, 500 mg/kg/day for 2 days; feces one day after administration; before administration 6.4
Experimental: as §1, §2, §3
a species of TATAC agar 37° C., for 1 day, […]

[8] = system: Staphylococcus aureus IAM 1011; assay: Anti-bacterial activity, agar plate dilution method (MIC), Staphylococcus aureus; assay type: cell-based; details: Mueller-Hinton agar, 18 to 24 hours, 37° C.
Experimental: as §6
Staphylococcus aureus, IAM 1011
as §7, §8, §9

Escherichia coli = assay: Effect on the intestinal bacterial colonies: number of Escherichia coli in feces; assay type: in vivo, Escherichia coli (feces of female ICR mice); details: oral, 500 mg/kg/day for 2 days; feces one day after administration; before administration 7.0
Experimental: as §1, §2, §3
DHL agar 37° C., for 1 day, […]

Compound: COC(=O)CNC(=O)c1ccc(NC(=O)C2=C(CSc3nnnn3C)CSC3N2C(=O)C3(NC(=O)CSCC#N)OC)cc1 (stereo not drawn) [Example 4, N-(4-carbomethoxymethylcarbamoylphenyl)-{7-beta-cyanomethylthioacetamido-7-alpha-methoxy-3-[(1-methyl-1H-tetrazol-5-yl)thio]methyl-3-cepheme-4-carboxylic}amide]
- Log10 value of the number of bacterial cells/g of feces, a species of Lactobacillus [1]: 9.3 Log10 cells/g of feces
- mice alive on the 7th day of inoculation [2]: more than 16 mice
- Log10 value of the number of bacterial cells/g of feces, a species of Bacterioides [3]: 8.3 Log10 cells/g of feces
- Log10 value of the number of bacterial cells/g of feces, Pseudomonas aeruginosa (Pseudomonas aeruginosa): < 3.0 Log10 cells/g of feces
- Minimum concentration of inhibiting growth of Escherichia coli (MIC) [4]: ≥ 100 microgram/ml
- inoculated and administered mice alive on the 7th day of inoculation [5]: more than 70%
- Log10 value of the number of bacterial cells/g of feces, Lactobacillus bifidus (Lactobacillus bifidus): 7.9 Log10 cells/g of feces
- Sign: diameter of growth-inhibiting circle as percentage of that due to compound of formula (II), with the addition of S-9 mix [6]: + (1 to 33)
- Sign: diameter of growth-inhibiting circle as percentage of that due to compound of formula (II), without adding S-9 mix [6]: - (0)
- Log10 value of the number of bacterial cells/g of feces, a species of Streptococcus [7]: 5.9 Log10 cells/g of feces
- Minimum concentration of inhibiting growth of Staphylococcus aureus (MIC) [8]: ≥ 100 microgram/ml
- Log10 value of the number of bacterial cells/g of feces, Escherichia coli (Escherichia coli): 7.0 Log10 cells/g of feces

Compound: COC1(NC(=O)CSCC#N)C(=O)N2C(C(=O)Nc3ccc(C)cc3)=C(CSc3nnnn3C)CSC21 (stereo not drawn) [Example 6, N-(4-methylphenyl)-{7-beta-cyanomethylthioacetamido-7-alpha-methoxy-3-[(1-methyl-1H-tetrazol-5-yl)thio]methyl-3-cepheme-4-carboxylic}amide]
- Log10 value of the number of bacterial cells/g of feces, a species of Lactobacillus [1]: 9.2 Log10 cells/g of feces
- Log10 value of the number of bacterial cells/g of feces, a species of Bacterioides [3]: 8.0 Log10 cells/g of feces
- Log10 value of the number of bacterial cells/g of feces, Pseudomonas aeruginosa (Pseudomonas aeruginosa): < 3.0 Log10 cells/g of feces
- Minimum concentration of inhibiting growth of Escherichia coli (MIC) [4]: ≥ 100 microgram/ml
- Log10 value of the number of bacterial cells/g of feces, Lactobacillus bifidus (Lactobacillus bifidus): 8.0 Log10 cells/g of feces
- Sign: diameter of growth-inhibiting circle as percentage of that due to compound of formula (II), with the addition of S-9 mix [6]: + (1 to 33)
- Sign: diameter of growth-inhibiting circle as percentage of that due to compound of formula (II), without adding S-9 mix [6]: - (0)
- Log10 value of the number of bacterial cells/g of feces, a species of Streptococcus [7]: 6.3 Log10 cells/g of feces
- Minimum concentration of inhibiting growth of Staphylococcus aureus (MIC) [8]: ≥ 100 microgram/ml
- Log10 value of the number of bacterial cells/g of feces, Escherichia coli (Escherichia coli): 6.9 Log10 cells/g of feces
